One experiment deals with DLK (Homo sapiens (Human), UniProt Q12852). As to the kind of experiment: DLK biochemical assay (TR-FRET, MKK7 phosphorylation). The gist of the method: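 Catalytic-domain DLK (10 nM) phosphorylates His-MKK7 (15 nM) with 60 μM ATP, 90 min at RT, in pH 7.5 HEPES buffer. Phospho-T275/S277 read by TR-FRET (Eu anti-phospho donor, XL665 anti-His acceptor) after 16 h detection, at 37° C. in 1536 or 4° C. in 384 format.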

The next experiment addresses LZK (Homo sapiens (Human), UniProt O43283). As to the kind of experiment: LZK biochemical assay (TR-FRET, MKK7 phosphorylation). In outline:
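Catalytic-domain LZK (10 nM) phosphorylated His-MKK7 (15 nM) with 15 μM ATP for 90 min at RT. Phospho-T275/S277 detected by Eu-anti-phospho-MKK7/XL665-anti-His TR-FRET after 16 h at 32° C, using the 665/Eu ratio. Buffer: 50 mM Hepes pH 7.5, 10 mM MgCl2, 1 mM DTT.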
In general terms: TR-FRET usually uses a lanthanide donor and a delayed reading to cut background.

Each structure is given as a SMILES string. pIC50: −log10 of the molar value.

Sequence of DLK (Q12852 1-520): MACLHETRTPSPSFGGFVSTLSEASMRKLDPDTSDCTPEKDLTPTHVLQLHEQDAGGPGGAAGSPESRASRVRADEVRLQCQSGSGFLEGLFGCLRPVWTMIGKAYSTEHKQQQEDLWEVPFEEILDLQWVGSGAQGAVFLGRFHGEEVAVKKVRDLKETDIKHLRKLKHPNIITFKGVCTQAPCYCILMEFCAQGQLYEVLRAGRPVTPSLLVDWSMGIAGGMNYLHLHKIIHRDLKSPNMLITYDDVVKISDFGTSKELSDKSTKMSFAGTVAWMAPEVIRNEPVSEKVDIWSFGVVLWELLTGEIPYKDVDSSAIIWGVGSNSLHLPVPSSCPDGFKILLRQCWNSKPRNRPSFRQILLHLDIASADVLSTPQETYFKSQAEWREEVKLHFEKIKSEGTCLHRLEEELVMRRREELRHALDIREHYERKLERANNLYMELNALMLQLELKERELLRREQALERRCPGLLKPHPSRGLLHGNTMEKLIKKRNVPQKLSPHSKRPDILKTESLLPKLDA
Sequence of LZK (O43283 168-409): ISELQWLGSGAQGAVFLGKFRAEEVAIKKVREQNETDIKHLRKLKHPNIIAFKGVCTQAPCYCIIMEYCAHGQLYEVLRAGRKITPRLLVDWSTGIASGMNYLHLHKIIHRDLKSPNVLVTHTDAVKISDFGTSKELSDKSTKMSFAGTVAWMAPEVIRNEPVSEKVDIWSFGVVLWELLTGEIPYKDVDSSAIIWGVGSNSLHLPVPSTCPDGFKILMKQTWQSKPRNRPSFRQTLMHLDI

Regarding `C[C@@H](CO)NC(=O)c1cc(-c2csc(C(=O)N(C)[C@@H](C)c3ccc(F)cc3)c2)cn2nc(N)nc12` [Compound 110], the pIC50 (usually the IC50 on a negative log10 scale, so that one unit is a factor of ten) was 7.09 against DLK and 6.33 at LZK.
As for `Nc1nc2c(C(=O)N[C@H](CO)C(F)(F)F)cc(-c3csc(C(=O)NCc4ccc(F)cc4)c3)cn2n1` [Compound 111], the pIC50 against DLK is 7.36; at LZK, 6.54.
The corresponding values for `Nc1nc2c(C(=O)NC3CNC3)cc(-c3csc(C(=O)NCc4ccc(F)cc4)c3)cn2n1` [Compound 113] are 6.66 and 6.18.
On the same counts, the results for `C[C@H](NC(=O)c1cc(-c2cc(C(=O)NC3CNC3)c3nc(N)nn3c2)cs1)c1ccc(F)cc1` [Compound 114] are 7.33 and 6.15.
The corresponding values for `CC[C@H](NC(=O)c1cc(-c2cc(C(=O)N[C@H]3CCOC3)c3nc(N)nn3c2)cs1)c1ccc(F)cc1` [Compound 115] are 8.89 and 7.39.
In the case of `CC[C@H](C)NC(=O)c1cc(-c2csc(C(=O)N[C@@H](COC)c3ccccc3)c2)cn2nc(N)nc12` [Compound 116], the figures for the pIC50 against DLK and on LZK were 8.66 and 7.85, respectively.
With `CC(C)NC(=O)c1cc(-c2csc(C(=O)NC(COC(F)(F)F)c3ccccc3)c2)cn2nc(N)nc12` (centres unmarked) [Compound 117], the pIC50 against DLK is 7.68; against LZK, 6.62.
On the same counts, the results for `CC(C)NC(=O)c1cc(-c2csc(C(=O)N[C@@H](C)c3ccc(OC(F)(F)F)cc3)c2)cn2nc(N)nc12` [Compound 118] are 6.68 and 5.28.
On the same counts, the results for `CC(C)NC(=O)c1cc(-c2csc(C(=O)NC3CCCc4cc(F)ccc43)c2)cn2nc(N)nc12` (centres unmarked) [Compound 119] are 7.62 and 6.30.
For the compound `CC(C)NC(=O)c1cc(-c2csc(C(=O)N[C@H]3CCOc4ccccc43)c2)cn2nc(N)nc12` [Compound 120], the pIC50 against DLK is 8.16; at LZK, 6.96.
On the same counts, the results for `CC(C)NC(=O)c1cc(-c2csc(C(=O)NC3CC(C)(C)Oc4ccccc43)c2)cn2nc(N)nc12` (centres unmarked) [Compound 121] are 7.77 and 6.28.
The corresponding values for `CC(C)NC(=O)c1cc(-c2csc(C(=O)N[C@H]3CCCc4ccccc43)c2)cn2nc(N)nc12` [Compound 122] are 8.22 and 6.44.
The corresponding values for `CC(C)NC(=O)c1cc(-c2csc(C(=O)NC3(c4ccc(F)cc4)CCCC3)c2)cn2nc(N)nc12` [Compound 123] are 8.54 and 7.08.
As for `COc1ccc(C(C)(C)NC(=O)c2cc(-c3cc(C(=O)NC(C)C)c4nc(N)nn4c3)cs2)cc1` [Compound 124], the pIC50 is 7.77 against DLK and 6.48 on LZK.
The corresponding values for `COc1cccc(C(C)(C)NC(=O)c2cc(-c3cc(C(=O)NC(C)C)c4nc(N)nn4c3)cs2)c1` [Compound 125] are 7.74 and 6.66.
With `CC[C@@H](NC(=O)c1cc(-c2csc(C(=O)NCc3ccc(F)cc3)c2)cn2nc(N)nc12)C(F)(F)F` [Compound 126], the values for the pIC50 at DLK and at LZK were 6.01 and 5.47, respectively.
On the same counts, the results for `CC[C@@H](NC(=O)c1cc(-c2csc(C(=O)N[C@@H](C)c3ccc(F)cc3)c2)cn2nc(N)nc12)C(F)(F)F` [Compound 127] are 6.03 and 5.08.
The corresponding values for `CC(C)NC(=O)c1cc(-c2csc(C(=O)NCC3CC3)c2)cn2nc(N)nc12` [Compound 128] are 6.96 and 6.21.
Take `CC(C)NC(=O)c1cc(-c2csc(C(=O)NC3COC3)c2)cn2nc(N)nc12` [Compound 129]: the pIC50 against DLK was 6.54; against LZK, 6.10.
As for `COC[C@H](NC(=O)c1cc(-c2cc(C(=O)NC(C)C)c3nc(N)nn3c2)cs1)c1ccc(F)cc1` [Compound 130], the results for the pIC50 against DLK and on LZK were 7.85 and 6.92, respectively.
The corresponding values for `CC(C)NC(=O)c1cc(-c2csc(C(=O)NC3CC(C)(C)Oc4ccccc43)c2)cn2nc(N)nc12` (centres unmarked) [Compound 131] are 7.20 and 5.82.
On to `CC(C)NC(=O)c1cc(-c2csc(C(=O)NC3CC(C)(C)Oc4ccccc43)c2)cn2nc(N)nc12` (centres unmarked) [Compound 132], for which the figures for the pIC50 against DLK and at LZK were 7.55 and 6.14, respectively.
Turning to `CC[C@H](C)NC(=O)c1cc(-c2csc(C(=O)N[C@H](CC)c3ccc(F)cc3)c2)cn2nc(N)nc12` [Compound 133], the pIC50 at DLK was 8.00; at LZK, 6.62.
On the same counts, the results for `CC[C@@H](NC(=O)c1cc(-c2cc(C(=O)NC(C)C)c3nc(N)nn3c2)cs1)c1ccc(F)cc1` [Compound 134] are 7.44 and 6.17.
On the same counts, the results for `CC[C@@H](NC(=O)c1cc(-c2cc(C(=O)N[C@H]3CCOC3)c3nc(N)nn3c2)cs1)c1ccc(F)cc1` [Compound 135] are 8.13 and 6.60.
The corresponding values for `CC[C@@H](C)NC(=O)c1cc(-c2csc(C(=O)N[C@H](CC)c3ccc(F)cc3)c2)cn2nc(N)nc12` [Compound 136] are 7.20 and 5.25.
Consider `CC[C@H](NC(=O)c1cc(-c2cc(C(=O)NC3CCC3)c3nc(N)nn3c2)cs1)c1ccc(F)cc1` [Compound 137], for which the pIC50 was 8.01 at DLK and 6.52 against LZK.
In the case of `CC[C@H](C)NC(=O)c1cc(-c2csc(C(=O)N[C@@H](COC)c3ccc(F)cc3)c2)cn2nc(N)nc12` [Compound 138], the values for the pIC50 against DLK and against LZK were 8.38 and 7.51, respectively.
On the same counts, the results for `COC[C@H](NC(=O)c1cc(-c2cc(C(=O)N[C@H]3CCOC3)c3nc(N)nn3c2)cs1)c1ccc(F)cc1` [Compound 139] are 8.26 and 6.92.
The corresponding values for `CC[C@H](NC(=O)c1cc(-c2cc(C(=O)NC3(CO)CC3)c3nc(N)nn3c2)cs1)c1ccc(F)cc1` [Compound 140] are 7.14 and 6.10.
On the same counts, the results for `CC[C@H](NC(=O)c1cc(-c2cc(C(=O)NC(C)CF)c3nc(N)nn3c2)cs1)c1ccc(F)cc1` (some centres unmarked) [Compound 141] are 8.00 and 7.20.
Regarding `CC[C@H](NC(=O)c1cc(-c2cc(C(=O)NC(C)(C)C)c3nc(N)nn3c2)cs1)c1ccc(F)cc1` [Compound 142], the values for the negative-log IC50 (pIC50) at DLK and on LZK were 6.92 and 6.40, respectively.
Regarding `CC[C@H](C)NC(=O)c1cc(-c2csc(C(=O)NC3(c4ccc(F)cc4)CCCC3)c2)cn2nc(N)nc12` [Compound 143], the pIC50 at DLK was 8.05; against LZK, 6.96.
The corresponding values for `CC[C@H](NC(=O)c1cc(-c2cc(C(=O)NC(C)CF)c3nc(N)nn3c2)cs1)c1ccc(F)cc1` (some centres unmarked) [Compound 144-1] are 8.34 and 7.38.
On the same counts, the results for `CC[C@H](C)NC(=O)c1cc(-c2csc(C(=O)N[C@H]3CCOc4ccccc43)c2)cn2nc(N)nc12` [Compound 144-3] are 8.14 and 7.37.
The corresponding values for `CC[C@H](NC(=O)c1cc(-c2csc(C(=O)NCc3ccc(F)cc3)c2)cn2nc(N)nc12)C(F)(F)F` [Compound 144-4] are 6.10 and 5.60.
For `CC[C@H](NC(=O)c1cc(-c2csc(C(=O)N[C@@H](C)c3ccc(F)cc3)c2)cn2nc(N)nc12)C(F)(F)F` [Compound 144-5], the pIC50 at DLK was 6.20; against LZK, 5.59.
The corresponding values for `CC[C@@H](C)NC(=O)c1cc(-c2csc(C(=O)N[C@@H](CC)c3ccc(F)cc3)c2)cn2nc(N)nc12` [Compound 144] are 7.42 and 6.11.
On the same counts, the results for `CC(C)NC(=O)c1cc(-c2csc(C(=O)NCc3ccc(F)cc3)c2)cc2nc(N)nn12` [Compound 145] are 7.52 and 6.91.
On the same counts, the results for `CC(C)NC(=O)c1cc(-c2csc(C(=O)N[C@@H](C)c3ccccc3)c2)cc2nc(N)nn12` [Compound 146] are 7.92 and 7.15.
As for `CC(C)NC(=O)c1cc(-c2csc(C(=O)N[C@@H](C)c3ccc(F)cc3)c2)cc2nc(N)nn12` [Compound 147], the pIC50 is 7.68 against DLK and 7.00 against LZK.
The corresponding values for `COc1cccc(CNC(=O)c2cc(-c3cc(C(=O)NC(C)C)n4nc(N)nc4c3)cs2)c1` [Compound 148] are 7.19 and 6.64.
On the same counts, the results for `CC(C)NC(=O)c1cc(-c2csc(C(=O)NCc3ccccc3)c2)cc2nc(N)nn12` [Compound 149] are 7.55 and 6.96.
On the same counts, the results for `CC(C)NC(=O)c1cc(-c2csc(C(=O)NC3CCCCC3)c2)cc2nc(N)nn12` [Compound 150] are 7.34 and 6.31.
Regarding `CC(C)NC(=O)c1cc(-c2csc(C(=O)NCc3nc4ccccc4o3)c2)cc2nc(N)nn12` [Compound 151], the results for the pIC50 at DLK and against LZK were 7.44 and 7.00, respectively.
On the same counts, the results for `CC[C@H](NC(=O)c1cc(-c2cc(C(=O)NC(C)C)n3nc(N)nc3c2)cs1)c1ccccc1` [Compound 152] are 8.38 and 7.24.
On the same counts, the results for `CC(C)NC(=O)c1cc(-c2csc(C(=O)N[C@H](C)c3ccc(F)cc3)c2)cc2nc(N)nn12` [Compound 153] are 7.49 and 6.55.
The corresponding values for `CC[C@H](NC(=O)c1cc(-c2cc(C(=O)NC(C)C)n3nc(N)nc3c2)cs1)c1ccc(F)cc1` [Compound 154] are 8.31 and 7.05.
In the case of `CC[C@H](NC(=O)c1cc(-c2cc(C(=O)N[C@@H](C)CC)n3nc(N)nc3c2)cs1)c1ccc(F)cc1` [Compound 156], the pIC50 was 8.12 against DLK and 7.10 at LZK.

Source of the values: patent publication US20230382904A1, “SUBSTITUTED 4-([1,2,4]TRIAZOLO[1,5-a]PYRIDIN-6-YL)THIOPHENE-2-CARBOXAMIDE DERIVATIVES AND USE THEREOF” (The Johns Hopkins University, priority 2020, published 2023).
